Data from patent publication US20240376097A1, “BCL-2 Inhibitor” (BeiGene Ltd., priority 2020, published 2024).
Read-outs that look alike come from different tables or passages of the source.

Legend:
[1] = target: Recombinant human Bcl-2 protein (Homo sapiens (Human), UniProt P10415); assay: Bcl-2 TR-FRET Assay; format: binding
Outline: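 0.05 nM Bcl-2 pre-incubated 0.5 h at room temperature with 10-point compound dilutions (top final 1, 0.1, 0.02 or 0.01 uM) in 20 mM potassium phosphate pH 7.5, 50 mM NaCl, 1 mM EDTA, 0.05% Tween-20, 0.01% BSA; FITC-Bak peptide (0.5 nM) and anti-6His Tb cryptate added, 1 h. IC50 from four-parameter logistic fit.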

[2] = target: recombinant human Bcl-2-G101V protein (Homo sapiens (Human), UniProt P10415, G101V); assay: Bcl-2-G101V TR-FRET Assay; format: binding; details: Bcl-2 G101V mutant, TR-FRET; read-out: Biochemical assay (IC50, nM) Bcl-2 G101V
Outline: (§1)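 Compounds were titrated at increasing concentrations against the Bcl-2-G101V–ligand interaction. TR-FRET signals were then read (ex 337 nm; em 490/520 nm). Percent inhibition was derived from the 490-to-520 nm ratio, and IC50 from a four-parameter logistic equation.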

[3] = test system: recombinant human Bcl-2-G101V protein; assay: Bcl-2-G101V TR-FRET Assay; format: binding; details: ratio of biochemical IC50 Bcl-2 G101V / Bcl-2 WT
Outline: as §1

[4] = test system: RS4;11 (BCL-2 dependent acute lymphoblastic leukemia cell line); assay: RS4;11 Cell Proliferation Assay; format: cell-based; details: read-out: Cellular proliferation assay (IC50, nM) RS4
Outline: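 RS4;11 cells, 50,000 per well in RPMI-1640 with 10% FBS, treated 48 h at 37 °C with a 10-point dilution series topping at 1 μM. Viability read by CellTiter-Glo ATP luminescence; mean IC50 reported.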

[5] = test system: BCL-2 G101V knock-in cell line H96 (derive from RS4;11); assay: Bcl 2-G101V Knock-In RS4;11 Cell Proliferation Assay; format: cell-based; details: RS4;11 Bcl-2 G101V knock-in clone H96, 48 hrs, CellTiter-GLO, read-out: Cellular proliferation assay (IC50, nM) RS4
Outline: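 H96, a CRISPR-generated RS4;11 clone carrying BCL2-G101V knock-in (WES/RNA-seq validated), seeded 50,000 per well and exposed 48 h at 37 °C to 10-point dilutions topping at 1 or 10 μM. Viability by CellTiter-Glo luminescence; mean IC50.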

[6] = target: recombinant human Bcl-2 D103Y protein (Homo sapiens (Human), UniProt P10415, D103Y); assay: Bcl-2-D103Y Biochemical Assay (TR-FRET); format: binding; details: for IC50: TR-FRET, FITC labeled Bak peptide; for Ratio of Bcl-2 D103Y/Bcl-2 WT: ratio of IC50
Outline: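 Recombinant human Bcl-2 D103Y binding to its ligand measured by TR-FRET (ex 337 nm, em 490/520 nm) with increasing compound concentrations. Percent inhibition from the 490/520 nm ratio; IC50 from four-parameter logistic fit.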

[7] = Bcl-2 wild type, TR-FRET, read-out: Biochemical assay (IC50, nM) Bcl-2 WT
[8] = wild type Bcl-2, unit inferred, read-out: Bcl-2 WT
[9] = Homo sapiens, RS4-11, RS4;11 cells

Row | Molecule | IC50 [1, 7] [nM] | IC50 [1, 8] [nM] | IC50 [2] [nM] | Ratio of Bcl-2 G101V/WT [3] | IC50 [4, 9] [nM] | IC50 ([5]; Homo sapiens) [nM] | IC50 [6] [nM] | Ratio of Bcl-2 D103Y/Bcl-2 WT [6] | IC50 ([4]; RS4;11 cells) [nM] | IC50 [5] [nM] | ratio of Bcl-2 D103Y/Bcl-2 wt, compared with F91b in WO2019210828 ([6]; comparison in words)
1 | COc1nn(C)cc1CN1CCN(C2CC3(CCN(c4ccc(C(=O)NS(=O)(=O)c5ccc(NC[C@H]6CC[C@](C)(O)CC6)c([N+](=O)[O-])c5)c(Oc5cnc6[nH]ccc6c5)c4)CC3)C2)C(c2ccccc2C(C)C)C1 (stereo partly shown) [Example 71, 2-((1H-pyrrolo[2,3-b]pyridin-5-yl)oxy)-N-((4-((((1r,4r)-4-hydroxy-4-methylcyclohexyl)methyl)amino)-3-nitrophenyl)sulfonyl)-4-(2-(2-(2-isopropylphenyl)-4-((3-methoxy-1-methyl-1H-pyrazol-4-yl)methyl)piperazin-1-yl)-7-azaspiro[3.5]nonan-7-yl)benzamide] | 0.02 | 0.02 | 0.17 | 8.3 | 0.43 | 2 | 0.15 | 7.6 |  |  | 
2 | 2-((1H-pyrrolo[2,3-b]pyridin-5-yl) oxy)-N-((4-((((1r,4r)-4-hydroxy-4- methylcyclohexyl)methyl)amino)- 3-nitrophenyl)sulfonyl)-4-(2-((R)- 2-(2-isopropylphenyl)-4-((7- methoxybenzofuran-5-yl)methyl) piperazin-1-yl)-7-azaspiro[3.5] nonan-7-yl)benzamide [Example 280] | 0.26 | 0.26 | 0.56 | 2.2 |  |  | 0.23 | 0.89 | 0.14 | 0.43 | 
3 | CC(C)c1ccccc1C1CN(Cc2cccc3sccc23)CCN1C1CC2(CCN(c3ccc(C(=O)NS(=O)(=O)c4ccc(NC[C@H]5CC[C@](C)(O)CC5)c([N+](=O)[O-])c4)c(Oc4cnc5[nH]ccc5c4)c3)CC2)C1 (stereo partly shown) [Example 59, 2-((1H-pyrrolo[2,3-b]pyridin-5-yl)oxy)-4-(2-(4-(benzo[b]thiophen-4-ylmethyl)-2-(2-isopropylphenyl)piperazin-1-yl)-7-azaspiro[3.5]nonan-7-yl)-N-((4-((((1r,4r)-4-hydroxy-4-methylcyclohexyl)methyl)amino)-3-nitrophenyl)sulfonyl)benzamide] | 0.73 | 0.73 | 3 | 4.1 | 0.8 | 10.4 | 3.2 | 4.4 |  |  | significantly lower
4 | COc1cc(CN2CCN(C3CC4(C3)CN(c3ccc(C(=O)NS(=O)(=O)c5ccc(NC[C@H]6CC[C@](C)(O)CC6)c([N+](=O)[O-])c5)c(Oc5cnc6[nH]cc(F)c6c5)c3)C4)[C@H](c3ccccc3C(C)C)C2)ccc1C1COC1 [Example 345, 2-((3-fluoro-1H-pyrrolo[2,3-b]pyridin-5-yl)oxy)-N-((4-((((1r,4r)-4-hydroxy-4-methylcyclohexyl)methyl)amino)-3-nitrophenyl)sulfonyl)-4-(6-((R)-2-(2-isopropylphenyl)-4-(3-methoxy-4-(oxetan-3-yl)benzyl)piperazin-1-yl)-2-azaspiro[3.3]heptan-2-yl) benzamide] | 0.16 | 0.16 | 0.38 | 2.4 | 0.14 | 0.24 | 0.13 | 0.8 |  |  | 
5 | COc1cc(CN2CCN(C3CC4(CCN(c5ccc(C(=O)NS(=O)(=O)c6ccc(NC[C@H]7CC[C@](C)(O)CC7)c([N+](=O)[O-])c6)c(Oc6cnc7[nH]ccc7c6)c5)CC4)C3)[C@H](c3ccccc3C(C)C)C2)cc2c1OCCC2 [Example 302, 2-((1H-pyrrolo[2,3-b]pyridin-5-yl)oxy)-N-((4-((((1r,4r)-4-hydroxy-4-methylcyclohexyl)methyl)amino)-3-nitrophenyl)sulfonyl)-4-(2-((R)-2-(2-isopropylphenyl)-4-((8-methoxychroman-6-yl)methyl)piperazin-1-yl)-7-azaspiro[3.5]nonan-7-yl)benzamide] | 0.071 | 0.071 | 0.2 | 2.8 | 0.31 | 0.79 | 0.069 | 1.0 |  |  | 
6 | COc1cc(CN2CCN(C3CC4(CCN(c5ccc(C(=O)NS(=O)(=O)c6ccc(NC[C@H]7CC[C@](C)(O)CC7)c([N+](=O)[O-])c6)c(Oc6cnc7[nH]cc(F)c7c6)c5)CC4)C3)[C@H](c3ccccc3C(C)C)C2)ccc1C1CC1 [Example 258, 4-(2-((R)-4-(4-cyclopropyl-3-methoxybenzyl)-2-(2-isopropylphenyl)piperazin-1-yl)-7-azaspiro[3.5]nonan-7-yl)-2-((3-fluoro-1H-pyrrolo[2,3-b]pyridin-5-yl)oxy)-N-((4-((((1r,4r)-4-hydroxy-4-methylcyclohexyl)methyl)amino)-3-nitrophenyl)sulfonyl) benzamide] | 0.85 | 0.85 | 1.75 | 2.1 | 0.11 | 0.28 | 1.5 | 1.8 |  |  | 
7 | CC(C)c1ccccc1C1CN(Cc2cccc3c2OCCO3)CCN1C1CC2(CCN(c3ccc(C(=O)NS(=O)(=O)c4ccc(NC[C@H]5CC[C@](C)(O)CC5)c([N+](=O)[O-])c4)c(Oc4cnc5[nH]ccc5c4)c3)CC2)C1 (stereo partly shown) [Example 79, 2-((1H-pyrrolo[2,3-b]pyridin-5-yl)oxy)-4-(2-(4-((2,3-dihydrobenzo [b][1,4]dioxin-5-yl)methyl)-2-(2-isopropylphenyl)piperazin-1-yl)-7-azaspiro[3.5]nonan-7-yl)-N-((4-((((1r,4r)-4-hydroxy-4-methylcyclohexyl)methyl)amino)-3-nitrophenyl)sulfonyl)benzamide] | 0.16 | 0.16 | 0.51 | 3.2 | 0.35 | 1 | 0.19 | 1.2 |  |  | 
8 | COc1cc(CN2CCN(C3CC4(C3)CN(c3ccc(C(=O)NS(=O)(=O)c5ccc(NC[C@H]6CC[C@](C)(O)CC6)c([N+](=O)[O-])c5)c(Oc5cnc6[nH]cc(F)c6c5)c3)C4)[C@H](c3ccccc3C(C)C)C2)cc2c1OCC2(C)C [Example 295, 2-((3-fluoro-1H-pyrrolo[2,3-b]pyridin-5-yl)oxy)-N-((4-((((1r,4r)-4-hydroxy-4-methylcyclohexyl)methyl)amino)-3-nitrophenyl)sulfonyl)-4-(6-((R)-2-(2-isopropylphenyl)-4-((7-methoxy-3,3-dimethyl-2,3-dihydrobenzofuran-5-yl)methyl)piperazin-1-yl)-2-azaspiro[3.3]heptan-2-yl)benzamide] | 0.19 | 0.19 | 0.56 | 3.0 | 0.29 | 0.49 | 0.25 | 1.3 |  |  | 
9 | CC(C)c1ccccc1C1CN(Cc2ccc(C#N)cc2)CCN1C1CC2(CCN(c3ccc(C(=O)NS(=O)(=O)c4ccc(NC[C@H]5CC[C@](C)(O)CC5)c([N+](=O)[O-])c4)c(Oc4cnc5[nH]ccc5c4)c3)CC2)C1 (stereo partly shown) [Example 42, 2-((1H-pyrrolo[2,3-b]pyridin-5-yl)oxy)-4-(2-(4-(4-cyanobenzyl)-2-(2-isopropylphenyl)piperazin-1-yl)-7-azaspiro[3.5]nonan-7-yl)-N-((4-((((1r,4r)-4-hydroxy-4-methylcyclohexyl)methyl)amino)-3-nitrophenyl)sulfonyl)benzamide] | 0.41 | 0.41 | 2.5 | 6.1 | 1.8 | 13.5 | 1.7 | 4.1 |  |  | 
